From ChEMBL document CHEMBL1201862, “PubChem BioAssay data set” (2004)
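Briefly, cells in 96-well plates were exposed to five compound concentrations for 48 h, and endpoints were estimated by linear interpolation. Here, GI50 denotes the concentration required for 50% inhibition of growth.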 Activity calls are given as the source filed them. Rule as the data show it: active = GI50 up to about 1.1 µM and inactive = higher.

Key:
Test in all cases: DTP human tumour cell line panel, 48 h
CAKI-1 = tested on: CAKI-1
CCRF-CEM = tested on: CCRF-CEM
EKVX = tested on: EKVX
HCT-15 = tested on: HCT-15
IGROV-1 = tested on: IGROV-1
K562 = tested on: K562
LOX IMVI = tested on: LOX IMVI
M14 = tested on: M14
MCF7 = tested on: MCF7
MDA-MB-435 = tested on: MDA-MB-435
MDA-N = tested on: MDA-N
Malme-3M = tested on: Malme-3M
NCI-H460 = tested on: NCI-H460
NCI-H522 = tested on: NCI-H522
OVCAR-5 = tested on: OVCAR-5
PC-3 = tested on: PC-3
RXF 393 = tested on: RXF 393
SW-620 = tested on: SW-620
U-251 = tested on: U-251
UO-31 = tested on: UO-31

| Structure (SMILES) | GI50 (CAKI-1) | GI50 (CCRF-CEM) | GI50 (EKVX) | GI50 (HCT-15) [µM] | GI50 (IGROV-1) | GI50 (K562) | GI50 (LOX IMVI) | GI50 (M14) | GI50 (MCF7) | GI50 (MDA-MB-435) | GI50 (MDA-N) | GI50 (Malme-3M) | GI50 (NCI-H460) | GI50 (NCI-H522) | GI50 (OVCAR-5) | GI50 (PC-3) | GI50 (RXF 393) | GI50 (SW-620) | GI50 (U-251) | GI50 (UO-31) |
| --- | --- | --- | --- | --- | --- | --- | --- | --- | --- | --- | --- | --- | --- | --- | --- | --- | --- | --- | --- | --- |
| CN(CCCNC(=O)c1nn(-c2ccccc2)c2c1Cc1ccccc1-2)CCCNC(=O)c1nn(-c2ccccc2)c2c1Cc1ccccc1-2 | 1.38 µM (inactive) | 1 µM (active) | 1.83 µM (inactive) | 1.64 | 1.51 µM (inactive) | 0.55 µM (active) | 1.51 µM (inactive) | 1.05 µM (active) | 1.63 µM (inactive) | 1.23 µM (inactive) | 1.5 µM (inactive) | 1.5 µM (inactive) | 1.66 µM (inactive) | 1.35 µM (inactive) | 1.75 µM (inactive) | 1.69 µM (inactive) | 1.75 µM (inactive) | 1.31 µM (inactive) | 1.7 µM (inactive) | 1.61 µM (inactive) |
| O=C(/N=C1/OC(CN2CCOCC2)CN1C(=O)Nc1ccccc1)Nc1ccccc1 (stereo not given) | > 100 µM (inactive) | > 100 µM (inactive) | > 100 µM (inactive) | > 100 | > 100 µM (inactive) | > 100 µM (inactive) | > 100 µM (inactive) | > 100 µM (inactive) | > 100 µM (inactive) | > 100 µM (inactive) | > 100 µM (inactive) | > 100 µM (inactive) | > 100 µM (inactive) | > 100 µM (inactive) | > 100 µM (inactive) | > 100 µM (inactive) | > 100 µM (inactive) | > 100 µM (inactive) | > 100 µM (inactive) | > 100 µM (inactive) |
| O=C(O)c1cccc(NC(C(=O)c2ccccc2)c2ccccc2)c1 (stereo not given) | > 100 µM (inactive) | > 100 µM (inactive) | > 100 µM (inactive) | > 100 | > 100 µM (inactive) | > 100 µM (inactive) | > 100 µM (inactive) | > 100 µM (inactive) | > 100 µM (inactive) | > 100 µM (inactive) | > 100 µM (inactive) | > 100 µM (inactive) | > 100 µM (inactive) | 78.9 µM (inactive) | > 100 µM (inactive) | > 100 µM (inactive) | > 100 µM (inactive) | > 100 µM (inactive) | > 100 µM (inactive) | > 100 µM (inactive) |
| COc1ccc(C(=O)Nc2ccc3oc(-c4ccccc4)nc3c2)cc1 | > 100 µM (inactive) | > 100 µM (inactive) | > 100 µM (inactive) | > 100 | > 100 µM (inactive) | > 100 µM (inactive) | > 100 µM (inactive) | > 100 µM (inactive) | > 100 µM (inactive) | > 100 µM (inactive) | > 100 µM (inactive) | > 100 µM (inactive) | > 100 µM (inactive) | > 100 µM (inactive) | > 100 µM (inactive) | > 100 µM (inactive) | > 100 µM (inactive) | > 100 µM (inactive) | 61.7 µM (inactive) | 0.227 µM (active) |
| c1ccc(COc2nc3cc(C45CC6CC(CC(C6)C4)C5)ccc3[nH]2)cc1 | 39.7 µM (inactive) | 10.2 µM (inactive) | 13.5 µM (inactive) | 3.72 | 13.6 µM (inactive) | 1.19 µM (inactive) | 12.1 µM (inactive) | 17.2 µM (inactive) | 4.7 µM (inactive) | 8.95 µM (inactive) | 11.9 µM (inactive) | 9.16 µM (inactive) | 9.2 µM (inactive) | 3.42 µM (inactive) | 41 µM (inactive) | 9.06 µM (inactive) | 11.3 µM (inactive) | 21.4 µM (inactive) | 8.87 µM (inactive) | 6.22 µM (inactive) |
| CC1=C(C(=O)OCCc2ccc([N+](=O)[O-])cc2)C(c2cccc([N+](=O)[O-])c2)C(C(=O)OC(C)C)=C(C)N1 (stereo not given) | 4.68 µM (inactive) | 3.57 µM (inactive) | 5.43 µM (inactive) | 5.47 | 9.53 µM (inactive) | 3.52 µM (inactive) | 4.72 µM (inactive) | 3.7 µM (inactive) | 3.72 µM (inactive) | 4.46 µM (inactive) | 5.11 µM (inactive) | 6.75 µM (inactive) | 3.72 µM (inactive) | 1.87 µM (inactive) | > 100 µM (inactive) | 2.26 µM (inactive) | 2.91 µM (inactive) | 6.68 µM (inactive) | 5.69 µM (inactive) | 5.43 µM (inactive) |
| N#CCCN(C(=O)Nc1ccccc1)[C@H]1CCCC[C@@H]1N(C(=O)Nc1ccccc1)c1ccccc1 | > 100 µM (inactive) | 30.1 µM (inactive) | 65.5 µM (inactive) | > 100 | 61 µM (inactive) | 49.1 µM (inactive) | > 100 µM (inactive) | 64.7 µM (inactive) | 48.2 µM (inactive) | > 100 µM (inactive) | > 100 µM (inactive) | > 100 µM (inactive) | 48.2 µM (inactive) | 71.1 µM (inactive) | > 100 µM (inactive) | 48.1 µM (inactive) | 35.6 µM (inactive) | 72.6 µM (inactive) | > 100 µM (inactive) | 54.2 µM (inactive) |
| CC(C)(C)c1cc(OCc2nnc(S)n2N)c(Cl)cc1OCc1nnc(S)n1N | > 100 µM (inactive) | 22.9 µM (inactive) | 49.7 µM (inactive) | 55.8 | 44.9 µM (inactive) | 37.7 µM (inactive) | 34.8 µM (inactive) | 51.3 µM (inactive) | 38.5 µM (inactive) | 39.5 µM (inactive) | 41.3 µM (inactive) | 38.1 µM (inactive) | 24 µM (inactive) | 35.2 µM (inactive) | 63.7 µM (inactive) | 28.2 µM (inactive) | 26.2 µM (inactive) | 43.2 µM (inactive) | 29.7 µM (inactive) | 63.2 µM (inactive) |
| C[N+]1(CCCCN2c3ccccc3Sc3cc(N=[N+]=[N-])ccc32)CCN(C(=O)CCNC(=O)Cc2ccc(C(=O)c3ccccc3)cc2)CC1 | 25.2 µM (inactive) | 23.3 µM (inactive) | 31.9 µM (inactive) | 22.8 | 23.4 µM (inactive) | 7.19 µM (inactive) | 20.3 µM (inactive) | 23.4 µM (inactive) | 19.7 µM (inactive) | 26.4 µM (inactive) | 24.8 µM (inactive) | 18.7 µM (inactive) | 24.6 µM (inactive) | 24.4 µM (inactive) | 21.7 µM (inactive) | 20.5 µM (inactive) | 31.5 µM (inactive) | 29.2 µM (inactive) | 21.6 µM (inactive) | 19.3 µM (inactive) |
| CCCCCCc1cc(C=O)sc1-c1ccc(-c2sc(-c3ccc(-c4ccc(-c5cc(CCCCCC)c(-c6ccc(-c7sc(C=O)cc7CCCCCC)s6)s5)s4)s3)cc2CCCCCC)s1 | > 100 µM (inactive) | > 100 µM (inactive) | > 100 µM (inactive) | > 100 | > 100 µM (inactive) | > 100 µM (inactive) | > 100 µM (inactive) | > 100 µM (inactive) | > 100 µM (inactive) | > 100 µM (inactive) | > 100 µM (inactive) | > 100 µM (inactive) | > 100 µM (inactive) | 91.4 µM (inactive) | > 100 µM (inactive) | > 100 µM (inactive) | > 100 µM (inactive) | > 100 µM (inactive) | > 100 µM (inactive) | > 100 µM (inactive) |
| O=C1OC2c3ccccc3C(=O)C2(c2ccccc2)N1c1ccccc1 (stereo not given) | 121 µM (inactive) | 128 µM (inactive) | > 200 µM (inactive) | > 200 | > 200 µM (inactive) | 139 µM (inactive) | > 200 µM (inactive) | > 200 µM (inactive) | > 200 µM (inactive) | > 200 µM (inactive) | > 200 µM (inactive) | > 200 µM (inactive) | > 200 µM (inactive) | > 200 µM (inactive) | > 200 µM (inactive) | 183 µM (inactive) | > 200 µM (inactive) | > 200 µM (inactive) | > 200 µM (inactive) | 72.6 µM (inactive) |
| COC1C(OC(=O)/C=C/C=C/C=C/C=C/C(=O)O)CCC2(CO2)C1C1(C)OC1CC=C(C)C (stereo not given) | 43.8 µM (inactive) | 21.4 µM (inactive) | 27.2 µM (inactive) | 24.2 | 46.3 µM (inactive) | 21.1 µM (inactive) | 17.4 µM (inactive) | 13.6 µM (inactive) | 25.1 µM (inactive) | 14.6 µM (inactive) | 20.5 µM (inactive) | 26.2 µM (inactive) | 0.112 µM (active) | 23.2 µM (inactive) | > 78.2 µM (inactive) | 15.2 µM (inactive) | 48.8 µM (inactive) | 21 µM (inactive) | 18.5 µM (inactive) | 24.5 µM (inactive) |
| CC1=C(N2CC2)C(=O)C(C)=C(N2CC2)C1=O | 0.0991 µM (active) | 0.0434 µM (active) | 0.697 µM (active) | 0.196 | 0.215 µM (active) | 0.254 µM (active) | 0.112 µM (active) | 0.189 µM (active) | 0.0212 µM (active) | 0.288 µM (active) | 0.0998 µM (active) | 0.204 µM (active) | < 0.0111 µM (active) | 0.0998 µM (active) | 0.296 µM (active) | 0.282 µM (active) | 0.151 µM (active) | 0.143 µM (active) | 0.152 µM (active) | 0.0912 µM (active) |
| CC(=O)OC1(C)CC(C)C(=O)C(C(O)CC2CC(=O)NC(=O)C2)C1 (stereo not given) | 0.0875 µM (active) | 0.00507 µM (active) | 0.0253 µM (active) | 0.0348 | 0.031 µM (active) | 0.0178 µM (active) | 0.013 µM (active) | 0.0161 µM (active) | 0.0176 µM (active) | 0.0148 µM (active) | 0.0166 µM (active) | 0.0186 µM (active) | 0.0121 µM (active) | 0.00357 µM (active) | 0.0206 µM (active) | 0.0199 µM (active) | 0.01 µM (active) | 0.015 µM (active) | 0.00697 µM (active) | 0.0219 µM (active) |
